Among the data in ChEMBL document CHEMBL3301562, “MMV Box screening against Plasmodium falciparum protein kinases and aminoacyl tRNA synthetases” are IC50 values, retold here.

Bounds are passed on as bounds.

Holding throughout (assay type): functional
Assay [1] concerns the target T1, Cdk-related protein kinase 6 (Plasmodium falciparum, UniProt O77239).
T1 sequence (O77239 whole entry): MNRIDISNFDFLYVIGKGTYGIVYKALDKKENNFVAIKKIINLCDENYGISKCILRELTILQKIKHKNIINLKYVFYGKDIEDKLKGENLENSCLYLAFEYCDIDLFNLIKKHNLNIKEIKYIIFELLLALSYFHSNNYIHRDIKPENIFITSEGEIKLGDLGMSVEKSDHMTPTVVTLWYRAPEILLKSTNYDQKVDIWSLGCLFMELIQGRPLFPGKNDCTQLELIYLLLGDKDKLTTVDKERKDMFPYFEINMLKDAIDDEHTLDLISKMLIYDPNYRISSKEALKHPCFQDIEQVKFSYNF
The experiment in a line: Final concentrations were 1.5 uM ATP, 5 mM MnCl2, and 15 ug/ml PK6 in a buffer of 100 mM Tris-HCl (pH 7.5). 50 ug/mL MBP was provided as the substrate; 10 uM staurosporine was used as a control inhibitor. Incubation time was 3 hours and 40 minutes.The catalytic activity of each kinase was considered proportional to ATP consumed, as determined from measurements of residual [ATP] with the luciferase-based reagent Kinase-Glo (Promega) following incubation. Luminescence (proportional to residual [ATP]) was measured on the plate readers FLx800 (BioTek Instruments, Winooski, VT, USA) and MicroBeta2.

Assay [2] concerns the target T2, Calcium-dependent protein kinase 4 (Plasmodium falciparum (isolate 3D7), UniProt Q8IBS5).
T2 sequence (Q8IBS5 whole entry): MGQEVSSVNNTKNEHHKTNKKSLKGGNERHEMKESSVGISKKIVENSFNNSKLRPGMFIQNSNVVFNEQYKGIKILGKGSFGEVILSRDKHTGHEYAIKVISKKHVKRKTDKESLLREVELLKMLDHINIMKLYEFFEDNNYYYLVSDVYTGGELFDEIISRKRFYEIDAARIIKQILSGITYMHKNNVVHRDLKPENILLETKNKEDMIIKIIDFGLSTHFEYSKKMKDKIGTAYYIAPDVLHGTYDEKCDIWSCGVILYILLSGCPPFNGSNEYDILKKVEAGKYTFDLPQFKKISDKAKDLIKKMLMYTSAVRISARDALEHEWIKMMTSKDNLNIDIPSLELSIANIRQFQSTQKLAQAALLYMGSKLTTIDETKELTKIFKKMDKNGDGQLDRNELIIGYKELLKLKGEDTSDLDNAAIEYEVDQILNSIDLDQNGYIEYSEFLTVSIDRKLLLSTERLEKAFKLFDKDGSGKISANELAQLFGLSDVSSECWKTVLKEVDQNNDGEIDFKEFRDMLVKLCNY
The experiment in a line: MMV: CDPK4 Protein kinase inhibition assay using recombinant PfCDPK4, syntide2 peptide substrate, ATP and KinaseGlo to measure % inhibition at 1 uM MMV box compound. In general terms: Kinase-Glo measures the ATP left after a reaction by luminescence.

Assay [3] has as its target Calcium-dependent protein kinase 1 (Plasmodium falciparum, UniProt P62344). The experiment in a line: MMV: CDPK1 Protein kinase inhibition assay using recombinant PfCDPK1, syntide 2 peptide substrate, ATP and KinaseGlo to measure % inhibition at 1 uM MMV box compound.
Assay [4] has as its target T3, Mitogen-activated protein kinase (Plasmodium falciparum, UniProt Q25917).
T3 sequence (Q25917 whole entry): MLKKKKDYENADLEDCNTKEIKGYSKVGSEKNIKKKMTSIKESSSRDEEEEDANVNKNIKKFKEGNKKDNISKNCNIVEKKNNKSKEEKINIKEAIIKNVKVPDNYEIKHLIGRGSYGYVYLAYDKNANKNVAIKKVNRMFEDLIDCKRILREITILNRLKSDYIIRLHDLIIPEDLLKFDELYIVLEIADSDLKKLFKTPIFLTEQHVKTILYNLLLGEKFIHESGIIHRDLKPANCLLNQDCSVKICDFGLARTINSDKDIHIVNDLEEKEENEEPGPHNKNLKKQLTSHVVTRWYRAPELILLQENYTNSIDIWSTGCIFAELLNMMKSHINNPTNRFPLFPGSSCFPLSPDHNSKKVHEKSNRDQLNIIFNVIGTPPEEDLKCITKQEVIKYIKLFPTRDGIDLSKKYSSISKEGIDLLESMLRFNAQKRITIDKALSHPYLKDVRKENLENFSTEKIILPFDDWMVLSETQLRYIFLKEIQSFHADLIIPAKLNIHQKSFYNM
The experiment in a line: Final concentrations were 1 uM ATP, 0.5 mM DTT, 1 mM MgCl2, 0.5 mg/mL BSA, and 10 ug/ml MAP2 in a buffer of 50 mM HEPES (pH 7.0). 0.5 mg/mL histone III-S served as the substrate (13); 100 uM AMP-PNP, an ATP analog, was used as a control inhibitor. Incubation time was 4 hours.

The target of the next assay is T4, Proline--tRNA ligase (Plasmodium falciparum (isolate 3D7), UniProt Q8I5R7).
T4 sequence (Q8I5R7 whole entry): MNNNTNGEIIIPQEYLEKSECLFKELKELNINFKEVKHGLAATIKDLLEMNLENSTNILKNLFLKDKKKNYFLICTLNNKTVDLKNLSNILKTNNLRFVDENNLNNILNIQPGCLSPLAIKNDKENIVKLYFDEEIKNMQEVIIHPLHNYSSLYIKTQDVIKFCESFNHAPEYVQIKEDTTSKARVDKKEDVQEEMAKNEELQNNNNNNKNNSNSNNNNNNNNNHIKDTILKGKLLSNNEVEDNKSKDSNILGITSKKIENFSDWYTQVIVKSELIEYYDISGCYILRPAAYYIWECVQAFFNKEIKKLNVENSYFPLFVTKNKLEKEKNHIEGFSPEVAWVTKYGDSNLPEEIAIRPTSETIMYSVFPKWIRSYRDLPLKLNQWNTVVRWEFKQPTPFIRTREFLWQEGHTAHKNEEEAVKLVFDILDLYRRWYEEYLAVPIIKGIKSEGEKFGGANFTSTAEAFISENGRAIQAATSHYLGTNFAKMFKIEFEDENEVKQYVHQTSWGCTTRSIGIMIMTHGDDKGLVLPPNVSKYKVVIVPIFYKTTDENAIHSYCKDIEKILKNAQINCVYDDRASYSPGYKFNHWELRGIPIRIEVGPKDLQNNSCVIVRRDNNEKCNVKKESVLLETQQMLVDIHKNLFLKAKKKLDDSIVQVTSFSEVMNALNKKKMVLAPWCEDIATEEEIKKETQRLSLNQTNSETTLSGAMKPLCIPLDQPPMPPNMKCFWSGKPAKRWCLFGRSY
The experiment in a line: MMV: ProRS recombinant Plasmodium falciparum Prolyl-tRNA-synthetase, assay with yeast tRNA, ATP, and proline and 3 uM MMV malaria box compound, assay read out with kinase glo as % inhibition.

Assay [5] has as its target T5, Putative uncharacterized protein pk7 (Plasmodium falciparum, UniProt O96214).
T5 sequence (O96214 whole entry): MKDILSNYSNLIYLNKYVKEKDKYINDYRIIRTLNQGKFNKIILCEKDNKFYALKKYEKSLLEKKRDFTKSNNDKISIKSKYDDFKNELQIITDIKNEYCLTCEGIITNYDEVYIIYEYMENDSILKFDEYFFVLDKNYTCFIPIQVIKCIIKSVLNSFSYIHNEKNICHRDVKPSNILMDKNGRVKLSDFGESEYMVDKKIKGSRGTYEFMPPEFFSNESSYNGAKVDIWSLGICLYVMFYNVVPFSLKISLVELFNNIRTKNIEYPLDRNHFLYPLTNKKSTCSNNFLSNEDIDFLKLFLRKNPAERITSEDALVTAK
The experiment in a line: Final concentrations were 1 uM ATP, 2 mM DTT, 20 mM MgCl2, 2 mM MnCl2, 0.01% BSA, and 6 ug/ml PK7, in a buffer of 20 mM Tris-HCl (pH 7.5). The enzyme itself was the only substrate present (since autophosphorylation occurs); 100 uM 1NA-PP1 was used as a control inhibitor. Incubation time was 3 hours.

The target of another assay is Lysine--tRNA ligase (Plasmodium falciparum (isolate 3D7), UniProt Q8IDJ8). The experiment in a line: MMV: KRS recombinant Plasmodium falciparum Lysyl-tRNA-synthetase, assay with yeast tRNA, ATP, and lysine and 3 uM MMV malaria box compound, assay read out with kinase glo as % inhibition.
Sequence of Lysine--tRNA ligase (Q8IDJ8 whole entry): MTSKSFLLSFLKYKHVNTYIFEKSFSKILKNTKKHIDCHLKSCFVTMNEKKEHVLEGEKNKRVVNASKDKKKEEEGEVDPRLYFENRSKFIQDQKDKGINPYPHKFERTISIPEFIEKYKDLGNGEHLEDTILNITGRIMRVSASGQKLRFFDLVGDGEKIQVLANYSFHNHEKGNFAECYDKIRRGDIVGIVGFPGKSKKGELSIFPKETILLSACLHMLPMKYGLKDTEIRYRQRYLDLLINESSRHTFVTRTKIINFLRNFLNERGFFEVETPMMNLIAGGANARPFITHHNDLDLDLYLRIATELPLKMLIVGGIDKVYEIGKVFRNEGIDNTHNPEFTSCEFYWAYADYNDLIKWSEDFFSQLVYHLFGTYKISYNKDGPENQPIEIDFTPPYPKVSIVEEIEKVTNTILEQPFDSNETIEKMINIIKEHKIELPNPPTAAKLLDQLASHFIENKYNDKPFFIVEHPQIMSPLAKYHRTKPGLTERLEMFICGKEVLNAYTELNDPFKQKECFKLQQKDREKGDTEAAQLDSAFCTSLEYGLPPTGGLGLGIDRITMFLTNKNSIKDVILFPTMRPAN

Sequence of Calcium-dependent protein kinase 1 (P62344 whole entry): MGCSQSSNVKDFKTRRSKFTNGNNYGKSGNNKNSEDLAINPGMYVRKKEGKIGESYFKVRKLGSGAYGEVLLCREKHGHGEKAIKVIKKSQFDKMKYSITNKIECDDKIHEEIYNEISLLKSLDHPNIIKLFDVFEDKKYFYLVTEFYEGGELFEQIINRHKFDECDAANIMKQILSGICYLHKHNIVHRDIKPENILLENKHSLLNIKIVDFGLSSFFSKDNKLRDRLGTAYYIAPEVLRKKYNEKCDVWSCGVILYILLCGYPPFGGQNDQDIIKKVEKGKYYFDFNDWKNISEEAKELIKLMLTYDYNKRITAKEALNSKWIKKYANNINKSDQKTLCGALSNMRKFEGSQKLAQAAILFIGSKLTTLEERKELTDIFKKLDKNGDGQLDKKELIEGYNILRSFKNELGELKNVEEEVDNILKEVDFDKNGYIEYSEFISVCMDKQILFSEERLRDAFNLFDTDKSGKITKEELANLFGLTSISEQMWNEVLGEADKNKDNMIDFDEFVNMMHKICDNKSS

What is called IC50 is the concentration that gives 50% inhibition. On to `COc1cccc(Nc2nc(NCCO)c3ccccc3n2)c1`, for which the IC50 in assay [1] was > 1000 nM; in assay [2], > 1000 nM; in assay [3], > 1000 nM; in assay [4], > 1000 nM; on Proline--tRNA ligase, > 2500 nM; in assay [5] it was > 1000 nM. For the same compound, the half-maximal inhibitory concentration (IC50) at Lysine--tRNA ligase was > 2500 nM.

With `Cn1c(=O)c2cc(C(=O)NCCCN3CCCCCC3)sc2c2ccccc21`, the IC50 in assay [1] is > 1000 nM; in assay [2], > 1000 nM; in assay [3], > 1000 nM; in assay [4], > 1000 nM; on Proline--tRNA ligase, > 2500 nM; in assay [5], > 1000 nM. The IC50 at Lysine--tRNA ligase is > 2500 nM.

Consider `O=C(NC(c1ccccc1)c1ccc2cccnc2c1O)c1ccccc1` (stereo not drawn), for which the IC50 in assay [1] is > 1000 nM; in assay [2] it was > 1000 nM; in assay [3] it was > 1000 nM; in assay [4], > 1000 nM; on Proline--tRNA ligase, > 2500 nM; in assay [5] it was > 1000 nM. The IC50 on Lysine--tRNA ligase is > 2500 nM.

With `CCOc1cc(Cl)c(C(C)NC(=O)c2cccc(OC)c2)cc1OCC` (stereo not drawn), the half-inhibitory concentration (IC50) in assay [1] is > 1000 nM; in assay [2], > 1000 nM; in assay [3], > 1000 nM; in assay [4], > 1000 nM; on Proline--tRNA ligase it was > 2500 nM; in assay [5] it was > 1000 nM. For the same compound, the IC50 on Lysine--tRNA ligase is > 2500 nM.

`Cc1ccc(Cl)cc1N1CCN(CCCNC(=O)C2CCN(c3nc4ccccc4[nH]3)CC2)CC1`: the IC50 in assay [1] is > 1000 nM; in assay [2] it was > 1000 nM; in assay [3], > 1000 nM; in assay [4] it was > 1000 nM; at Proline--tRNA ligase, > 2500 nM; in assay [5], > 1000 nM. For the same compound, the 50% inhibitory concentration (IC50) at Lysine--tRNA ligase is > 2500 nM.

For `CCCC(c1nnnn1C1CCCCC1)N1CCN(C(=O)c2ccco2)CC1` (stereo not drawn), the IC50 is > 1000 nM in assay [1]; > 1000 nM in assay [2]; > 1000 nM in assay [3]; > 1000 nM in assay [4]; > 2500 nM at Proline--tRNA ligase; > 1000 nM in assay [5]. On Lysine--tRNA ligase, the IC50 is > 2500 nM.

On to `COc1cccc(-c2nn(C)c3sc(C(=O)NCCN4CCN(c5ccccc5F)CC4)cc23)c1`, for which the IC50 is > 1000 nM in assay [1]; > 1000 nM in assay [2]; > 1000 nM in assay [3]; > 1000 nM in assay [4]; > 2500 nM on Proline--tRNA ligase; > 1000 nM in assay [5]. Also, the half-inhibitory concentration (IC50) on Lysine--tRNA ligase is > 2500 nM.

Take `Cc1ccc(CN2CCC(C(=O)Nc3ccc(-c4cc5ccccc5[nH]4)cc3)CC2)o1`: the IC50 in assay [1] was > 1000 nM; in assay [2], > 1000 nM; in assay [3] it was > 1000 nM; in assay [4], > 1000 nM; on Proline--tRNA ligase, > 2500 nM; in assay [5], > 1000 nM. At Lysine--tRNA ligase, the half-inhibitory concentration (IC50) is > 2500 nM.

`Cc1cc(C)c2nc(N3CCC(C(=O)NCCCN4CCC(N5CCCCC5)CC4)CC3)sc2c1`: the IC50 in assay [1] is > 1000 nM; in assay [2] it was > 1000 nM; in assay [3] it was > 1000 nM; in assay [4] it was > 1000 nM; on Proline--tRNA ligase it was > 2500 nM; in assay [5] it was > 1000 nM. In addition, at Lysine--tRNA ligase, the IC50 was > 2500 nM.

In the case of `COc1ccccc1CNC(=O)C1c2ccccc2C(=O)N(CC(C)C)C1c1cccs1` (stereo not drawn), the IC50 is > 1000 nM in assay [1]; > 1000 nM in assay [2]; > 1000 nM in assay [3]; > 1000 nM in assay [4]; > 2500 nM on Proline--tRNA ligase; > 1000 nM in assay [5]. Besides, the IC50 on Lysine--tRNA ligase is > 2500 nM.

`O=C(Nc1ccc(F)c(Cl)c1)Nc1ccc(Cl)c(Cl)c1`: the IC50 is > 1000 nM in assay [1]; > 1000 nM in assay [2]; > 1000 nM in assay [3]; > 1000 nM in assay [4]; > 2500 nM on Proline--tRNA ligase; > 1000 nM in assay [5]. On Lysine--tRNA ligase, the IC50 is > 2500 nM.

For the compound `CCCc1c(C)nc2ccccc2c1O`, the IC50 was > 1000 nM in assay [1]; > 1000 nM in assay [2]; > 1000 nM in assay [3]; > 1000 nM in assay [4]; > 2500 nM on Proline--tRNA ligase; > 1000 nM in assay [5]. In addition, at Lysine--tRNA ligase, the IC50 was > 2500 nM.

Regarding `CCOc1c(Cl)cc(CNC(C)C(O)c2ccccc2)cc1OC` (stereo not drawn), the IC50 is > 1000 nM in assay [1]; > 1000 nM in assay [2]; > 1000 nM in assay [3]; > 1000 nM in assay [4]; > 2500 nM on Proline--tRNA ligase; > 1000 nM in assay [5]. Further, at Lysine--tRNA ligase, the IC50 is > 2500 nM.

In the case of `CN1c2ccccc2N(C)C1c1ccc2c(c1)OCO2`, the IC50 in assay [1] is > 1000 nM; in assay [2], > 1000 nM; in assay [3], > 1000 nM; in assay [4], > 1000 nM; at Proline--tRNA ligase it was > 2500 nM; in assay [5], > 1000 nM. In addition, on Lysine--tRNA ligase, the IC50 was > 2500 nM.
